For this series, the system named is HIV-2 Isolates. Put plainly: Activity against HIV-2 isolates in PBMCs, RT endpoint. Particulars: for IC50: Human immunodeficiency virus 2, PBMC. It is filed as cell-based.

Take `CCCCCCCCCCCCCCCCOCCCOP(=O)(O)CO[C@H](C)Cn1cnc2c(N)ncnc21` [CMX157, Hexadecyloxypropyl-9-R-[2-(Phosphonomethoxy)Propyl]-Adenine]: the “TI (TC50/IC50)” value (HIV-2 isolate CBL-20) was more than 223, the “TI (TC50/IC50)” value (HIV-2 isolate CDC310319) was more than 564 and the “TI (TC50/IC50)” value (HIV-2 isolate CDC310342) is listed as more than 232. The half-maximal inhibitory concentration (IC50) (HIV-2 isolate CBL-20) was determined as 4.48 nM, inhibition (HIV-2 isolate CDC310319) was half-maximal at 1.77 nM (IC50) and the IC50 (HIV-2 isolate CDC310342) stood at 4.31 nM.

As usually defined, the IC50 is the concentration at which inhibition is half-maximal. The low end stands for greater potency in that assay, the high end for weaker potency in that assay.

(Values after US8993542B2, “Methods of treating viral infections” (priority 2008, dated 2015).)
